Measured values published in US20200317660A1, “Quinazolinone Compound and Application Thereof” (LUOXIN PHARMACEUTICAL (SHANGHAI) CO., LTD., priority 2017, published 2020).
Read-outs that look alike come from different tables or passages of the source.

Key:
[1] = system: phosphorylation of PI3K downstream protein Akt in MCF7 cells; assay: In vitro test of cells activity: ELISA of Akt phosphorylation in MCF7 cells; format: cell-based; settings: 2 h compound, insulin 10 μg/mL stimulation, pAkt ELISA, read-out: MCF7 Cell IC50
Protocol: 2. In vitro test of cells activity
By the method of ELISA, the inhibition level of the test compound on the phosphorylation of PI3K downstream protein Akt in the signaling pathway was determined in MCF7 cells line to reflect the cells activity of the compound.
Cell culture medium: complete cell culture medium (RPMI 1640+10% serum+1% L-glutamine+1% double antibody)
Serum-free medium (without serum, RPMI 1640+1% L-glutamine+1% double antibody)
The detailed procedures areas follows:
(1) MCF7 cells (ATCC® HTB-22™) were inoculated into a 96-well plate at 100 μL of cell complete medium per well (2.5*10^4 cells per well), and the cells were incubated at 37° C. and 5% CO2 for 24 hours.
(2) The complete cell culture medium was replaced with 100 μL of serum-free medium, and incubated for starvation overnight.
(3) The compound was prepared (The initial concentration of the compound is 1 mM, which was subjected to a three-fold dilution in 10 concentrations, and the compound of each concentration was then diluted 100-fold with serum-free medium). 25 μL of the diluted compound was added to the cells orifice plate.
(4) The cells were incubated at 37° C. and 5% CO2 for 2 hours.
(5) The cells in the well plate were stimulated with 10 μg/mL insulin (Sigma # I9278-5 mL), incubated for 30 minutes, and then centrifuged at 1000 rpm for 5 minutes at room temperature.
(6) 250 μL of 1× balanced salt solution (Invitrogen, #14065-056, 4° C., containing 1 mM/L Na3VO4) was added to each well to wash the cells once.
(7) 100 μL of lysis buffer (trimethylolaminomethane hydrochloride, Invitrogen, #15567-1000 ml) was added to each well, shaken at 4° C. for 60 minutes, and then centrifuged at 4000 rpm for 4 minutes.
(8) The following procedures were carried out according to the instructions of ELISA kit (TGR BioSciences # EKT002).

PI3Kδ = molecular target: T1, PI3Kδ (Homo sapiens, UniProt O00329); assay: In vitro test of enzyme activity (ADP-Glo lipokinase), PI3K delta; format: biochemical; settings: 40 μM ATP, 50 μM PIP2:3PS, 120 min
T1 construct: purchased Millipore 14-604-K
T1 sequence (O00329 whole entry): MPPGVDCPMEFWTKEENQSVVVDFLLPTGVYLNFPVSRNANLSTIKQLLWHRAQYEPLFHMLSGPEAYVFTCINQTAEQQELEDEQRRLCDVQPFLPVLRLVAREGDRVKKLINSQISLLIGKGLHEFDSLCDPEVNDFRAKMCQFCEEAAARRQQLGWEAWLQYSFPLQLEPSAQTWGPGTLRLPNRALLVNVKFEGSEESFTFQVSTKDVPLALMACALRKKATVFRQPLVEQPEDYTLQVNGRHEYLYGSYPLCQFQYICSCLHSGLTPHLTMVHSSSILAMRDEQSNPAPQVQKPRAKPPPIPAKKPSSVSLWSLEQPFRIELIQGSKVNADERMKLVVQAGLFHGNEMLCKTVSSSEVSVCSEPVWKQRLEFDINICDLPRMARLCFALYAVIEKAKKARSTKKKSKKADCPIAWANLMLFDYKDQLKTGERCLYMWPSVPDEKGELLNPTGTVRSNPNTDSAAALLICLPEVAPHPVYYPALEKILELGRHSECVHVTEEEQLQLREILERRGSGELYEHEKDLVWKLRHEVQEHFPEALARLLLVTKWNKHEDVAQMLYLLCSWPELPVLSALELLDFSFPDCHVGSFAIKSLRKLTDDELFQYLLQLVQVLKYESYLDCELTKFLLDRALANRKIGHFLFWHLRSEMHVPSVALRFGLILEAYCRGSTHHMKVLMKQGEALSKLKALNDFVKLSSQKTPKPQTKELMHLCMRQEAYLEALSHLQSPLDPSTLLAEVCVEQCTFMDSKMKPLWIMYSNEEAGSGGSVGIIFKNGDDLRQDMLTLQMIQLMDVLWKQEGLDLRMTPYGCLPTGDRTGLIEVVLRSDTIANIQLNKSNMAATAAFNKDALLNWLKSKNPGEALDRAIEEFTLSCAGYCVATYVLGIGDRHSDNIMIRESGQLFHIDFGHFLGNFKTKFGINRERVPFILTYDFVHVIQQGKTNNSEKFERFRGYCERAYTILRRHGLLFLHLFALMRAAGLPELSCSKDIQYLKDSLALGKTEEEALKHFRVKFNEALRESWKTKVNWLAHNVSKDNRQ
T1 sequence (P27986 whole entry partner): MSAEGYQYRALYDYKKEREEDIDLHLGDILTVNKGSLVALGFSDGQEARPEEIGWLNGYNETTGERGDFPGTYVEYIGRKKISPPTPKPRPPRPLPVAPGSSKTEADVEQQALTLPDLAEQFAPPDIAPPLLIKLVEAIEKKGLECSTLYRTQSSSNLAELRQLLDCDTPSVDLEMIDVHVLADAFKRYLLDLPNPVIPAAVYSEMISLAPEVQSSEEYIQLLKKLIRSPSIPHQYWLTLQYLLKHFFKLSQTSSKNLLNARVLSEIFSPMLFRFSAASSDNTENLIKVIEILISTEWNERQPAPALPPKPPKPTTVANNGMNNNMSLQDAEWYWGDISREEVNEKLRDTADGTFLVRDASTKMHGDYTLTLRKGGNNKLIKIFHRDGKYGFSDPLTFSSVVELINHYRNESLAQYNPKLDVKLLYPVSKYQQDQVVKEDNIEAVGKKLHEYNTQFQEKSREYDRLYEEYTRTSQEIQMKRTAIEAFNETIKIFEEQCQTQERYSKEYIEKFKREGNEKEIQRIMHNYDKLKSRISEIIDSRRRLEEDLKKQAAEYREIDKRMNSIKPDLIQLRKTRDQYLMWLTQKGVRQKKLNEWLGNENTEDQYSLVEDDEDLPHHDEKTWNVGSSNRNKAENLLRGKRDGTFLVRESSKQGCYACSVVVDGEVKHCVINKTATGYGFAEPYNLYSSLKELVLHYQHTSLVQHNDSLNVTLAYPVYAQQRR
Protocol: (§1) 1. In Vitro Test of Enzyme Activity
(§2) The lipokinase reaction was carried out under the conditions of a suitable substrate and ATP, followed by two steps to detect the kinase activity with the ADP-Glo™ kit. The first step was terminating the kinase reaction, wherein the remaining ATP was completely removed and only ADP was left; the second step was adding kinase detection reagents to convert ADP to ATP, accompanied by luciferin/luciferase reaction. Finally, the output value of fluorescence value was converted into kinase activity.
(§3) Experimental materials and equipments:
(§4) 2. Kit: ADP-Glo™ Lipokinase and PIP2:3PS Kit (Promega # V1792)
(§5) The kit contains: 1 mM PIP2:3PS, 10× lipid dilution buffer, 1 M magnesium chloride, 10 mM ATP, 10 mM ADP, ADP-Glo reagent, detection buffer and detection substrate.
(§6) 3. Reaction plate: OptiPlate-384, white and transparent (PerkinElmer #6007299).
(§7) 1. 10× reaction buffer: 500 mM HEPES, pH 7.5, 500 mM NaCl, 9 mM MgCl2; BSA: 10% stock solution, homemade.
(§8) 2. Final test system conditions: 1× reaction system: 50 mM HEPES, 50 mM NaCl, 3 mM MgCl2, 0.01% BSA (freshly prepared on the day of the experiment), 1% DMSO (v/v)+/−compound
(§9) 3. Reaction system: 3 μL mixture of the enzyme and the substrate (1:1)+2 μL ATP/MgCl2 mixture+5 μL ADP-Glo reagent+10 μL detection reagent.
(§10) The detailed experimental procedures are as follows:
(§11) 1. Compound dilution: 50 nL 100×compound/DMSO was transferred to the test well plate with Echo. • For PI3Kα, the compound was diluted three-fold from the highest concentration of 0.111 mM for a total of 10 concentrations. • For PI3Kβ/PI3Kδ/PI3Kγ, the compound was three-fold diluted from the highest concentration of 1.11 mM for a total of 10 concentrations.
(§12) (1) The compound to be tested was prepared and 50 nL of 100 plus compound solution or DMSO was added to the corresponding well plate.
(§13) (2) 3.33 plate reaction buffer was prepared.
(§14) (3) 3.33 solution PIP2:3PS was prepared, PIP2:3PS was thawed for at least 1 minute before use.
(§15) (4) 2.5 mM containing 5.25 mM MgCl2 was prepared.
(§16) (5) 3.33 PI3Kα/PI3Kβ/PI3Kδ/PI3Kγ solution was prepared.
(§17) (6) The lipokinase solution and the PIP2:3PS solution were mixed in a volume ratio of 1:1.
(§18) (7) 3.33: lipokinase buffer and PIP2:3PS solution were mixed in a volume ratio of 1:1.
(§19) (8) 3 μL of buffer solution and PIP2:3PS were added to the first and the second columns of the well plate.
(§20) (9) 3 μL of the mixed solution of the enzyme and PIP2:3PS was added to the wells except the first and the second columns, centrifuged for 10 seconds (1000 rpm) and incubated at 23° C. for 20 minutes.
(§21) (10) 2 μL […] was added and well was shaken.
(§22) (11) The well plate was covered and shaken for about 30 s, then the well plate was incubated at 23° C. for 2 hours.
(§23) (12) 5 μL of ADP-Glo reagent containing 10 mM MgCl2 was added.
(§24) (13) The well plate was centrifuged at 1000 rpm for 10 seconds, and the well plate was then covered, shaken for about 30 seconds, and incubated at 23° C. for 60 minutes.
(§25) (14) 10 μL kinase detection reagent was added.
(§26) (15) The well plate was centrifuged at 1000 rpm for 10 seconds, and then incubated at 23° C. for 60 minutes.
(§27) (16) The fluorescence value was measured on the Envision instrument.

PI3Kα = molecular target: T2, PI3Kα (Homo sapiens, UniProt P42336); assay: In vitro test of enzyme activity (ADP-Glo lipokinase), PI3K alpha; format: biochemical; settings: 40 μM ATP, 50 μM PIP2:3PS, 120 min
T2 construct: purchased Millipore 14-602-K
T2 sequence (P42336 whole entry): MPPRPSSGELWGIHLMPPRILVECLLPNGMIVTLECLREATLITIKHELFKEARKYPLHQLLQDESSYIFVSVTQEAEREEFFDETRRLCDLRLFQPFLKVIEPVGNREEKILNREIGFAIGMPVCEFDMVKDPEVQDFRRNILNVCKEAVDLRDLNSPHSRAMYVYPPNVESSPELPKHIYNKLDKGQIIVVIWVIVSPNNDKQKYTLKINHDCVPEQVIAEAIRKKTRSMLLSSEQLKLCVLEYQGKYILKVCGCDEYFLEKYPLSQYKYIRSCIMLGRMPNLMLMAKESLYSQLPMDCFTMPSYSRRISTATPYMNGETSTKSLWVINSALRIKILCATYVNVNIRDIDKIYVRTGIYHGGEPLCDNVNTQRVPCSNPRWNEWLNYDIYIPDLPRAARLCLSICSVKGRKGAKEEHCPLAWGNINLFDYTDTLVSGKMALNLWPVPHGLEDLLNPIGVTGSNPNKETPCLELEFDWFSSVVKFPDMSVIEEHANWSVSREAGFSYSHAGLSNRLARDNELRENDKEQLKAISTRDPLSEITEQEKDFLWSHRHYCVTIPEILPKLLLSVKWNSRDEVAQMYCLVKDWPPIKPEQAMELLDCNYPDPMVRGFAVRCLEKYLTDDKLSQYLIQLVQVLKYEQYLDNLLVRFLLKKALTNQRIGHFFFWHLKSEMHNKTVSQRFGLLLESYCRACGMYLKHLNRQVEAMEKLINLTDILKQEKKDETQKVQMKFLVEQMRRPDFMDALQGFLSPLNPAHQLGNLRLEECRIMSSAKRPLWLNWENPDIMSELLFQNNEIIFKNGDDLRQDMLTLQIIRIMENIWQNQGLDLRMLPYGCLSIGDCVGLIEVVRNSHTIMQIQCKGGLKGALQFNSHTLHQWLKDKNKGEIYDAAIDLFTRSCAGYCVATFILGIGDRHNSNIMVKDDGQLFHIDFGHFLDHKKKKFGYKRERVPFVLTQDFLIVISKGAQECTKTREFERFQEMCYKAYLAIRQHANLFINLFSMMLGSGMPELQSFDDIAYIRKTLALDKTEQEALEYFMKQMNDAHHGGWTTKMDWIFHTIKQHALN
T2 sequence (P27986 whole entry partner): as the sequence (P27986 whole entry partner) above
Protocol: as §1, §2, §3, §4, §5, §6, §7, §8, §9, §10, §11, §12, §13, §14, §15, §16, §17, §18, §19, §20, §21, §22, §23, §24, §25, §26, §27

PI3Kγ = molecular target: T3, PI3Kγ (Homo sapiens, UniProt P48736); assay: In vitro test of enzyme activity (ADP-Glo lipokinase), PI3K gamma; format: biochemical; settings: 25 μM ATP, 50 μM PIP2:3PS, 120 min
T3 construct: purchased Millipore 14-558-K
T3 sequence (P48736 whole entry): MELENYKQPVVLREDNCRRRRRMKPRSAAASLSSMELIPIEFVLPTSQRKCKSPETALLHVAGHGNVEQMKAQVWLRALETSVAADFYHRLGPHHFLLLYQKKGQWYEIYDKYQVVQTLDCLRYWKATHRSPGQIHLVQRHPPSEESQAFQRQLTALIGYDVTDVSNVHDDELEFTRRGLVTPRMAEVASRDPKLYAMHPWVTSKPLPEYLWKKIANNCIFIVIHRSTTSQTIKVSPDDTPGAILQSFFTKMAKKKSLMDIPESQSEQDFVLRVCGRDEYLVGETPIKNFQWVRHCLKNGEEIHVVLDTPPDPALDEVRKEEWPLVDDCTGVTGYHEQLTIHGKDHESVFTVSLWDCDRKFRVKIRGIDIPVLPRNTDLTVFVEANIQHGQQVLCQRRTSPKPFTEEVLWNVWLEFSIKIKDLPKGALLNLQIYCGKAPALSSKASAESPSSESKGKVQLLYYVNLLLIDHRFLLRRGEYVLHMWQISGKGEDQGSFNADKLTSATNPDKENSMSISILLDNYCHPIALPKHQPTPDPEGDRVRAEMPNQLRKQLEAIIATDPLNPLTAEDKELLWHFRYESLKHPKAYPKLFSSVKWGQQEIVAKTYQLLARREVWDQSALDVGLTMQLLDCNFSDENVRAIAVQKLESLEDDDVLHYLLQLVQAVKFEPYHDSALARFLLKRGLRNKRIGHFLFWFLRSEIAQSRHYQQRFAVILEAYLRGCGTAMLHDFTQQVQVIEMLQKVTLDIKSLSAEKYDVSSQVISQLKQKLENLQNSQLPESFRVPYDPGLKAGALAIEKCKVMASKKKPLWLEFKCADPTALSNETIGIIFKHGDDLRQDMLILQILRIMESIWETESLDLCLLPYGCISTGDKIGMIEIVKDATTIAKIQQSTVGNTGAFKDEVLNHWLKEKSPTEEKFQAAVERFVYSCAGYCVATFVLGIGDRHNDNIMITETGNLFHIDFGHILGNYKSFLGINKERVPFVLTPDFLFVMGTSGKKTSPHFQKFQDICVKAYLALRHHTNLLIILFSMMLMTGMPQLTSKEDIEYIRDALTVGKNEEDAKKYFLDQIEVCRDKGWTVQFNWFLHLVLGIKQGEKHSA
Protocol: as §1, §2, §3, §4, §5, §6, §7, §8, §9, §10, §11, §12, §13, §14, §15, §16, §17, §18, §19, §20, §21, §22, §23, §24, §25, §26, §27

PI3Kβ = molecular target: T4, PI3Kβ (Homo sapiens, UniProt P42338); assay: In vitro test of enzyme activity (ADP-Glo lipokinase), PI3K beta; format: biochemical; settings: 40 μM ATP, 50 μM PIP2:3PS, 120 min
T4 construct: purchased Promega V1751
T4 sequence (P42338 whole entry): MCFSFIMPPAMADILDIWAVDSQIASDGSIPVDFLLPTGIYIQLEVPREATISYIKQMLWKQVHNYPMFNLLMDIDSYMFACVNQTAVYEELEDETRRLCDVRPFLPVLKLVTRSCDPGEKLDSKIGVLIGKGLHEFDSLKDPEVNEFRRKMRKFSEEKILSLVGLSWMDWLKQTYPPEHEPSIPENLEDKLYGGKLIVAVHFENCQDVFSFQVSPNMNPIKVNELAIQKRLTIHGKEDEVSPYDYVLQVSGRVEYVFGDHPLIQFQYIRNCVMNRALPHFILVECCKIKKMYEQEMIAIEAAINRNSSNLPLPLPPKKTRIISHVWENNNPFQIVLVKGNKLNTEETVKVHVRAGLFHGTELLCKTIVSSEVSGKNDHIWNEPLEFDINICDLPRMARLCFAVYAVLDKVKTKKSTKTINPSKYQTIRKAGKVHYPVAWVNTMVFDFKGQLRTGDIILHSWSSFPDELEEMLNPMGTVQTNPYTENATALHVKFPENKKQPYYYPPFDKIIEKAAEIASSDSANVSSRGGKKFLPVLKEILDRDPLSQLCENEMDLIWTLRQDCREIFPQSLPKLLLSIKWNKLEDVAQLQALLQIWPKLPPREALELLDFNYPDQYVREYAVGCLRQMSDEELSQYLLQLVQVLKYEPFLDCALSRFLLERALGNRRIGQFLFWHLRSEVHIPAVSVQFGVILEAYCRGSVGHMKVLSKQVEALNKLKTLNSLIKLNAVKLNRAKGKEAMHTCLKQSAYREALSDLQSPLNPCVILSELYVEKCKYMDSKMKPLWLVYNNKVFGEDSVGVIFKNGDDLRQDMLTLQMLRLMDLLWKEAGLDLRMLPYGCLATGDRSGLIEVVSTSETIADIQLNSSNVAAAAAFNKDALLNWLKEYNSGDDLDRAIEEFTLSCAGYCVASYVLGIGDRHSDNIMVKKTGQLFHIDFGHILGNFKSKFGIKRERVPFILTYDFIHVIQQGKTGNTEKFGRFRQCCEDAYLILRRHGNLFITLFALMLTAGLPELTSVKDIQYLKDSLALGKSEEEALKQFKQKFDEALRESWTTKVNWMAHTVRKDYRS
T4 sequence (P27986 whole entry partner): as the sequence (P27986 whole entry partner) above
Protocol: as §1, §2, §3, §4, §5, §6, §7, §8, §9, §10, §11, §12, §13, §14, §15, §16, §17, §18, §19, §20, §21, §22, §23, §24, §25, §26, §27

SMILES	IC50 [1]	IC50 (PI3Kδ)	IC50 (PI3Kα)	IC50 (PI3Kγ)	IC50 (PI3Kβ)	IC50 ([1]; Homo sapiens, MCF7, 2 h)
COc1ncc(-c2ccc3ncn(CC(C)C(=O)O)c(=O)c3c2)cc1NS(=O)(=O)c1ccc(F)cc1Cl (single isomer, unassigned) [R002, reference compound]	628 nM	122 nM	13.6 nM	20.4 nM	1060 nM	–
CNC(=O)C(C)Cn1cnc2ccc(-c3cnc(C)c(NS(=O)(=O)c4sc(C)nc4C)c3)cc2c1=O (single isomer, unassigned) [WX035]	–	7.3 nM	1.57 nM	19.6 nM	158 nM	–
CNC(=O)C(C)Cn1cnc2ccc(-c3cnc(CO)c(NS(=O)(=O)c4ccc(F)cc4Cl)c3)cc2c1=O (single isomer, unassigned) [WX062]	–	538 nM	30 nM	374 nM	> 10000 nM	–
CNC(=O)C(C)Cn1cnc2c(F)cc(-c3cnc(OC)c(NS(=O)(=O)c4ccc(F)cc4Cl)c3)cc2c1=O (single isomer, unassigned) [WX106]	460 nM	–	19.5 nM	–	736 nM	–
CNC(=O)[C@@H]1CCC[C@H]1Cn1cnc2ccc(-c3cnc(OC)c(NS(=O)(=O)c4ccc(F)cc4Cl)c3)cc2c1=O (single isomer, unassigned) [WX196]	395 nM	–	41 nM	–	1770 nM	–
CNC(=O)CCCn1cnc2ccc(-c3cnc(C)c(NS(=O)(=O)c4ccc(F)cc4Cl)c3)cc2c1=O [WX002]	–	12.4 nM	2.84 nM	33.7 nM	216 nM	–
Cc1ncc(-c2ccc3ncn(CCCC(=O)N4CCCC4)c(=O)c3c2)cc1NS(=O)(=O)c1ccc(F)cc1Cl [WX005]	–	7.42 nM	4.39 nM	49.7 nM	244 nM	–
Cc1nc(C)c(S(=O)(=O)Nc2cc(-c3ccc4ncn(CCCC(=O)N5CCCC5)c(=O)c4c3)cnc2C)s1 [WX007]	–	1.85 nM	1.49 nM	29.1 nM	159 nM	–
CCC(Cn1cnc2ccc(-c3cnc(OC)c(NS(=O)(=O)c4ccc(F)cc4Cl)c3)cc2c1=O)C(N)=O (stereo not shown) [WX021]	–	–	6.89 nM	–	133 nM	52.3 nM
COc1ncc(-c2ccc3ncn(CC(F)(F)C(N)=O)c(=O)c3c2)cc1NS(=O)(=O)c1ccc(F)cc1Cl [WX041]	–	7.16 nM	2.66 nM	8.37 nM	124 nM	–

Further compounds by falling IC50 (PI3Kα), results first:

IC50 [1]	IC50 (PI3Kδ)	IC50 (PI3Kα)	IC50 (PI3Kγ)	IC50 (PI3Kβ)	IC50 ([1]; Homo sapiens, MCF7, 2 h)	SMILES
–	336 nM	71.4 nM	318 nM	7230 nM	–	CNC(=O)C(C)Cn1cnc2ccc(-c3cnc(CO)c(NS(=O)(=O)c4ccc(F)cc4Cl)c3)cc2c1=O (single isomer, unassigned) [WX063]
–	28.4 nM	57.2 nM	48.1 nM	963 nM	–	CCC(CC)NC(=O)C(C)Cn1cnc2ccc(-c3cnc(OC)c(NS(=O)(=O)c4ccc(F)cc4Cl)c3)cc2c1=O (single isomer, unassigned) [WX057]
–	45.8 nM	34.4 nM	421 nM	345 nM	–	Cc1ncc(-c2ccc3ncn(CCN(C)C)c(=O)c3c2)cc1NS(=O)(=O)c1ccc(F)cc1Cl [R010, reference compound]
–	–	25.5 nM	–	832 nM	125 nM	COc1ncc(-c2ccc3ncn(CC(C(N)=O)C(C)C)c(=O)c3c2)cc1NS(=O)(=O)c1ccc(F)cc1Cl (stereo not shown) [WX022]
–	–	22.8 nM	–	2160 nM	> 1000 nM	CNC(=O)C(C)Cn1cnc2ccc(-c3cnc(OC(F)(F)F)c(NS(=O)(=O)c4ccc(F)cc4Cl)c3)cc2c1=O (stereo not shown) [WX127]
–	61 nM	19.6 nM	155 nM	5080 nM	–	CCC(CC)NC(=O)C(C)Cn1cnc2ccc(-c3cnc(OC)c(NS(=O)(=O)c4ccc(F)cc4Cl)c3)cc2c1=O (single isomer, unassigned) [WX056]
302 nM	–	18.1 nM	–	1850 nM	–	CCC(Cn1cnc2ccc(-c3cnc(OC)c(NS(=O)(=O)c4ccc(F)cc4Cl)c3)cc2c1=O)C(=O)NC (single isomer, unassigned) [WX107]
96.5 nM	–	13.9 nM	–	415 nM	–	CCC(Cn1cnc2ccc(-c3cnc(OC)c(NS(=O)(=O)c4ccc(F)cc4Cl)c3)cc2c1=O)C(=O)NC (single isomer, unassigned) [WX108]
–	13.2 nM	11.2 nM	14.2 nM	391 nM	–	COc1ncc(-c2ccc3ncn(CC(C)C(=O)NCC(F)(F)F)c(=O)c3c2)cc1NS(=O)(=O)c1ccc(F)cc1Cl (single isomer, unassigned) [WX059]
–	85 nM	7.16 nM	5.29 nM	426 nM	318 nM	COc1ncc(-c2ccc3ncn(CC(C)C(=O)O)c(=O)c3c2)cc1NS(=O)(=O)c1ccc(F)cc1Cl (single isomer, unassigned) [R003, reference compound]
–	9.15 nM	6.8 nM	16.4 nM	365 nM	–	COCCNC(=O)C(C)Cn1cnc2ccc(-c3cnc(OC)c(NS(=O)(=O)c4ccc(F)cc4Cl)c3)cc2c1=O (single isomer, unassigned) [WX064]
–	4.36 nM	6.71 nM	44.1 nM	88.5 nM	–	CNC(=O)C1(Cn2cnc3ccc(-c4cnc(OC)c(NS(=O)(=O)c5ccc(F)cc5Cl)c4)cc3c2=O)CC1 [WX202]
–	7.78 nM	5.26 nM	9.25 nM	181 nM	–	COc1ncc(-c2ccc3ncn(CC(C)C(=O)NCCF)c(=O)c3c2)cc1NS(=O)(=O)c1ccc(F)cc1Cl (single isomer, unassigned) [WX066]
–	29.6 nM	4.77 nM	68.3 nM	390 nM	–	CNC(=O)C(C)Cn1cnc2ccc(-c3cnc(OC)c(NS(=O)(=O)c4cc(Cl)c(F)cc4F)c3)cc2c1=O (single isomer, unassigned) [WX095]
